From patent US9150557B1, “Compositions and methods for the treatment of hyperglycemia” (CELLIX BIO PRIVATE LIMITED, priority 2014, dated 2015)

Experiment: Water solubility: distilled water added to a weighed amount until a clear solution is obtained
Type: physicochemical
Settings: for solubility: thermodynamic from solid, distilled water, weight in mg divided by volume of clear solution in mL
Description: Measurement of the water solubility of the test compounds is accomplished by using methods well known to those skilled in the art. Specifically, to a weighed amount of the test compound of the example compound Formula I (1-3) distilled water was added in small proportions until a clear solution was obtained. The total volume of the solution is measured. The water solubility is calculated by dividing the weight of the salt, in milligrams (mg), by the volume of the solution, in mL. […] The compound of Formula I (1-3) is therefore, at least 260 times more soluble in water than EPA itself. This is a clear indication of an unexpectedly high degree of bioavailability of the compositions of the invention. Highly water soluble medicinal preparations, when administered orally, result in efficient absorption from the gastrointestinal tract in to systemic circulation. Furthermore, water soluble preparations are especially suitable for parenteral administration.

solubility [mg/mL]	times more soluble in water than EPA (ratio of water solubility versus eicosapentaenoic acid (EPA))	Structure (SMILES)
< 0.2	–	CC/C=C\C/C=C\C/C=C\C/C=C\C/C=C\CCCC(=O)O [EPA, Eicosapentaenoic acid, reference compound]
68.6	at least 260 times	CC/C=C\C/C=C\C/C=C\C/C=C\C/C=C\CCCC(=O)OCCCN1CC(O)[C@@H](O)[C@H](O)C1CO (stereo partly drawn) [Formula I (1-3)]
